Data as given in patent US4606860A, “Rhodanines useful as a therapeutic agent for diabetic complications” (Kaken Pharmaceutical Co., Ltd., priority 1984, dated 1986).
Counter-ions that a name gives are not always drawn. Like-named read-outs stand apart in the source and are kept apart here.

Key:
aldose reductase = biological target: T1, aldose reductase (Rattus norvegicus, UniProt P07943); test: Aldose reductase inhibiting activity (crude enzyme from rat lens, NADPH absorbance at 340 nm); assay type: biochemical, rat (Wistar strain); conditions: DL-glyceraldehyde 10 mM, NADPH 0.104 mM, pH 6.2, Table 4, read-out: IC50 (50% inhibition concentration), aldose reductase
T1 construct: the supernatant was used as the crude enzyme solution; from tissue; host or cells: lens of male Wistar rats (10,000 g supernatant of homogenate, crude enzyme)
Protocol: Thus, Wistar strain male rats were sacrificed by decapitation, the lenses were excised and homogenized with a 0.1 M phosphate buffer [pH 6.8; containing 1 mM of mercaptoethanol and 1 mM of nicotinamide-adenine dinucleotide phosphate (NADP)]. The homogenate was then centrifuged at 10,000 g for 15 minutes and the supernatant was used as the crude enzyme solution.
To this buffer solution, there was added 15 μl of each of solutions of each test compound in varied concentrations, followed by addition of 25 μl of the crude enzyme solution prepared in advance, to thereby initiate the reaction.

[1] = Acute toxicity in mice (oral); assay type: in vivo; conditions: mouse, in vivo, male ddY mice, 2 weeks
Text: (§1) The acute toxicity in mice was examined with the rhodanine derivative (I) of the present invention.

male ddY strain mice = test: Acute toxicity in mice (oral); assay type: in vivo; conditions: 2 weeks
Text: as §1

[2] = system: thrombin-induced aggregation of washed rabbit platelets; test: Platelet aggregation inhibiting activity (thrombin-stimulated washed rabbit platelets, aggregometer); assay type: cell-based, rabbit (albino, white local breed); conditions: for IC50: Oryctolagus cuniculus, Platelet; for platelet aggregation inhibiting activity, in words: comparison with other compounds or Dipyridamole (Persantine)
Protocol: The platelets were suspended in a 15 mM Tris-hydrochloric acid buffer in a final concentration of 6×10^8 cells/ml (Tris: tris(hydroxymethyl)aminomethane). Each test compound was added thereto and incubation was carried out at 37° C. for 2 minutes. Then, the platelets were stimulated by addition of thrombin (final concentration 0.2 unit/ml; made by Mochida Pharmaceutical Co.) and the aggregation inhibiting activity was estimated by observation of the aggregation reaction using an aggregometer (made by Briston Co.).

[3] = 2 min, read-out: IC50 (50 % inhibition concentration), platelet aggregation
[4] = washed rabbit platelets, read-out: concentration inhibiting thrombin-induced aggregation by 50%
[5] = 2 min, washed rabbit platelets 6×10^8 cells/ml, thrombin 0.2 unit/ml, 37° C., 2 minutes, Table 3, read-out: IC50 (50 % inhibition concentration), platelet aggregation

| SMILES | IC50 (aldose reductase) [nM] | IC50 [2, 4] [nM] | platelet aggregation inhibiting activity, in words [2] | further results |
| --- | --- | --- | --- | --- |
| O=C(O)CN1C(=O)C(=CNc2ccccc2-c2ccccc2)SC1=S [Compound No. 15, 3-Carboxymethyl-5-(2-biphenylyl)aminomethylidenerhodanine] | 150 |  |  | LD50 at 336 h [1]: > 4000 mg/kg; deaths noted up to a dose of 4 g/kg body weight (male ddY strain mice): no deaths were noted; IC50 [2, 3]: 410000 nM |
| O=C(O)CN1C(=O)C(=CNc2cccc(Cl)c2)SC1=S [Compound No. 9, 3-Carboxymethyl-5-m-chlorophenylaminomethylidenerhodanine] | 23 | 300000 | almost comparable in said activity to Dipyridamole | LD50 at 336 h [1]: > 4000 mg/kg; deaths noted up to a dose of 4 g/kg body weight (male ddY strain mice): no deaths were noted |
| O=C(O)CN1C(=O)C(=CNCCO)SC1=S [Compound No. 3, Ethanolamine salt of 3-Carboxymethyl-5-hydroxyethylaminomethylidenerhodanine] | 700 |  |  |  |
| OCCN(CCO)c1nc(N2CCCCC2)c2nc(N(CCO)CCO)nc(N3CCCCC3)c2n1 [Dipyridamole, reference compound] |  |  |  | IC50 [2, 5]: 200000 nM |
| Cc1cccc(NC=C2SC(=S)N(CC(=O)O)C2=O)c1 [Compound No. 11, 3-Carboxymethyl-5-m-methylphenylaminomethylidenerhodanine] | 36 | 300000 | almost comparable in said activity to Dipyridamole | LD50 at 336 h [1]: > 4000 mg/kg; deaths noted up to a dose of 4 g/kg body weight (male ddY strain mice): no deaths were noted; IC50 [2, 3]: 320000 nM |
| COc1cccc(NC=C2SC(=S)N(CC(=O)O)C2=O)c1 [Compound No. 7, 3-Carboxymethyl-5-m-methoxyphenylaminomethylidene-rhodanine] | 26 | 300000 | almost comparable in said activity to Dipyridamole | LD50 at 336 h [1]: > 4000 mg/kg; deaths noted up to a dose of 4 g/kg body weight (male ddY strain mice): no deaths were noted; IC50 [2, 3]: 310000 nM |
| CN(C)C=C1SC(=S)N(CC(=O)O)C1=O [Compound No. 2, 3-Carboxymethyl-5-dimethylaminomethylidenerhodanine] | 650 |  |  |  |
| CNC=C1SC(=S)N(CC(=O)O)C1=O [Compound No. 1, 3-Carboxymethyl-5-methylaminomethylidenerhodanine] | 1300 |  |  |  |

The next lines start with results.

| IC50 (aldose reductase) [nM] | SMILES | IC50 [2, 4] [nM] | platelet aggregation inhibiting activity, in words [2] | further results |
| --- | --- | --- | --- | --- |
| 600 | CC(C)CNC=C1SC(=S)N(CC(=O)O)C1=O [Compound No. 5, 3-Carboxymethyl-5-isobutylaminomethylidenerhodanine] |  |  |  |
| 300 | C=CCNC=C1SC(=S)N(CC(=O)O)C1=O [Compound No. 4, 3-Carboxymethyl-5allylaminomethylidenerhodanine] |  |  |  |
| 50 | O=C(O)CN1C(=O)C(=CNc2ccc(Br)cc2)SC1=S [Compound No. 10, 3-Carboxymethyl-5-p-bromophenylaminomethylidenerhodanine] | 300000 | almost comparable in said activity to Dipyridamole | IC50 [2, 5]: 300000 nM |
| 340 | O=C(O)CN1C(=O)C(=CN2CCOCC2)SC1=S [Compound No. 12, 3-Carboxymethyl-5-morpholinomethylidenerhodanine] |  |  |  |
| 1300 | CN1CCCN(C=C2SC(=S)N(CC(=O)O)C2=O)CC1 [Compound No. 14, 3-Carboxymethyl-5-N-methylhomopiperazinomethylidenerhodanine] |  |  |  |
| 200 | CN1CCN(C=C2SC(=S)N(CC(=O)O)C2=O)CC1 [Compound No. 13, 3-Carboxymethyl-5-N-methylpiperazinomethylidenerhodanine] |  |  |  |
| 50 | COc1ccccc1NC=C1SC(=S)N(CC(=O)O)C1=O [Compound No. 8, 3-Carboxymethyl-5-o-methoxyphenylaminomethylidenerhodanine] | 300000 | almost comparable in said activity to Dipyridamole | IC50 [2, 5]: 310000 nM |
| 280 | CCCCCCNC=C1SC(=S)N(CC(=O)O)C1=O [Compound No. 6, 3-Carboxymethyl-5-hexylaminomethylidenerhodanine] |  |  |  |
